Results on three compounds are retold here after patent US9814714B2, “Kinase modulation, and indications therefor” (Plexxikon Inc., priority 2015, dated 2017).

pEC50, pIC50: −log10 of the molar value. Like-named read-outs stand apart in the source and are kept apart here.

Assay [1] deals with cell model that expresses the same HRAS mutation prevalent in squamous cell tumors. Briefly: HRAS mutant cell model: growth and MAPK pathway response gene expression. It counts as cell-based. An excerpt: In a cell model that expresses the same HRAS mutation prevalent in squamous cell tumors from patients treated with RAF inhibitors, first-generation RAF inhibitors stimulate the in vitro and in vivo growth of the cells and induce the expression of MAPK pathway response genes including EGFR ligands. […] Based on these advantageous properties of the compound of either Formula I or Formula II, enhanced tolerability and, in turn, increased drug dosage may be obtained.

For assay [2], the system named is pMEK in B9 cells (HRAS-Q61L). Briefly: Phospho-MEK AlphaScreen assay, pMEK activation in B9. Particulars: Mus musculus. It counts as cell-based, murine. As for the experimental part: (§1) Using AlphaScreen® technology, the ability of Formula I to affect the phosphorylation of ERK and MEK in the cells was measured quantitatively. Following treatment with compound, the cells were lysed, and a sample of the lysate was transferred to an assay plate. The lysate was mixed with antibodies directed against total ERK/MEK, antibodies that recognize specific phosphorylation sites on ERK/MEK, AlphaScreen® anti-mouse IgG Acceptor beads, and Streptavidin Donor beads. Upon excitation of the donor beads with laser light at 680 nm, singlet oxygen was produced. This singlet oxygen was rapidly quenched, unless the AlphaScreen® Acceptor beads were in close proximity, in which case a proximity signal can be measured at 580 nm. In the presence of phosphorylated ERK/MEK, there is a very strong proximity signal. BRAF-V600 inhibitors affect a decrease in this proximity signal in cells expressing BRAF-V600E (e.g. A375) through a decrease in phosphorylation of the BRAF effectors ERK and MEK.
(§2) 1. One day before the assay, 50,000 cells were plated in each well of a 96-well tissue-culture-treated plate (Corning #3610) in a 50 μL volume. Cells were incubated at 37° C. overnight.
(§3) 2. Compounds were diluted in DMSO to 500× final concentration. Each compound was plated as an 8-point titration, using 1:3 dilutions in DMSO. The maximum concentration was about 5 mM.
3. […]
In general terms: Alpha assays give light when donor and acceptor beads are brought close together.

Assay [3] has as its target BRAF (Homo sapiens, UniProt P15056). Briefly: In vitro RAF kinase biochemical assay, wild-type BRAF. As for the experimental part:
(§4) The in vitro RAF kinase activities were determined by measuring phosphorylation of a biotinylated substrate peptide as described in Tsai et al 2008. Formula II was tested against a panel of 287 kinases at concentrations of 1 μM in duplicate. […] The 287 kinases represent all major branches of the kinome phylogenetic tree. The inhibition screen of 287 kinases was carried out under contract as complementary panels at Invitrogen (Life Technologies, WI, USA) SelectScreen™ profiling service, DiscoverX (CA, USA) KINOMEScan™ service, and Reaction Biology Corporation (PA, USA) Kinase HotSpot^SM service.
BRAF, residues L416 through H766 fused at the N-terminus with a GST tag, was produced in insect cells, and BRAF was purchased from Millipore (Catalog #14-530).
(§5) 1) Test compounds in DMSO were serially diluted and plated into 384-well assay plates at 1 μL/well.
(§6) 2) Added were 15 μL/well of RAF enzyme and biotinylated-MEK1 substrate in kinase buffer.
(§7) 3) Added were 4 μL of ATP (500 μM) in kinase buffer.
(§8) 5) After a brief spin down, the plate was incubated at about room temperature for 40-50 minutes. 6) Added was 5 μL of Stop buffer at final EDTA 20 mM; anti-phospho-MEK1 1:2,500; donor/acceptor beads 3 μg/mL. 7) After brief spin down, the plate was incubated at room temperature for about 3 hours. 8) The plate was read on the Envision multilabel plate reader (Perkin Elmer). […] 2. Results

Assay [4] concerns pMEK in HCT116 cells (KRAS-G13D). Briefly: Phospho-MEK AlphaScreen assay, pMEK activation in HCT116. It counts as cell-based. The note with it: Homo sapiens, HCT-116. As for the experimental part: as §1, §2, §3
3. […]

For assay [5], the system named is pMEK in IPC-298 cells (NRAS-Q61L). As to the kind of experiment: Phospho-MEK AlphaScreen assay, pMEK activation in IPC-298. The class given is cell-based. The note with it: Homo sapiens. As for the experimental part: as §1, §2, §3
3. […]

The target of assay [6] is BRAF^V600E (Homo sapiens, UniProt P15056, V600E). Briefly: In vitro RAF kinase biochemical assay, BRAF V600E. As for the experimental part:
as §4
BRAF proteins were produced in insect cells at Plexxikon Inc. as N-terminally His-tagged fragments encompassing the kinase domain.
as §5, §6, §7, §8

The mark [7] stands for this setting: Table 1, average of more than 4 experiments.
[8] abbreviates: Table 1, average of more than 4 experiments, read-out: Biochemical IC50 BRAF^V600E.

BRAF^V600E, sequence (P15056 448-723 V600E): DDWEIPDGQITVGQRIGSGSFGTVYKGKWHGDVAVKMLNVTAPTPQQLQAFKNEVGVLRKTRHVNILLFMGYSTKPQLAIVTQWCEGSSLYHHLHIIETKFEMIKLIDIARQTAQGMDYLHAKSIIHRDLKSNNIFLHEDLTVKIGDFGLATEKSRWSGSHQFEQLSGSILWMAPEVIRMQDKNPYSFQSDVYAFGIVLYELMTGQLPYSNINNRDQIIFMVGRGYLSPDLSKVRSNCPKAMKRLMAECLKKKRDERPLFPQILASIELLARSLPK
BRAF, sequence (P15056 416-766): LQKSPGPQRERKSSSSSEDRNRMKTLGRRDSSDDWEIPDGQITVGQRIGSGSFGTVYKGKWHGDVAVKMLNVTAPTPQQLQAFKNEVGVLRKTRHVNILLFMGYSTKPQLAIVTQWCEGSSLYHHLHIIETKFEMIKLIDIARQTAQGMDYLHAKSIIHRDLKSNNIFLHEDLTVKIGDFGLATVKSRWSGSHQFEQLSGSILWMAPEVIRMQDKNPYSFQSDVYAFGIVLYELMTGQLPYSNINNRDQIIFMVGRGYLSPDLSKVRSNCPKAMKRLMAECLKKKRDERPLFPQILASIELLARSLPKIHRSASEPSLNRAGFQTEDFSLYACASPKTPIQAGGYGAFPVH

Broadly, the pEC50 is the EC50 on a negative log10 scale, so that one unit is a factor of ten. A lower pEC50 goes with a high EC50. By pIC50 is commonly meant the negative decadic logarithm of the IC50, by convention in mol/L. As for `O=C(c1c(F)ccc(NS(=O)(=O)N2CC[C@@H](F)C2)c1F)c1c[nH]c2ncc(-c3cnc(C4CC4)nc3)cc12` [Formula I, (3R)—N-[3-[5-(2-cyclopropylpyrimidin-5-yl)-1H-pyrrolo[2,3-b]pyridine-3-carbonyl]-2,4-difluorophenyl]-3-fluoropyrrolidine-1-sulfonamide], in assay [1], the “Stimulation of in vitro and in vivo growth and induction of MAPK pathway response genes including EGFR ligands (in words)” value is “no such effect”. The pEC50 in assay [2], in assay [4] and in assay [5] was 5.00 throughout. Also, the pIC50 in assay [3] (setting [7]) was 6.85; in assay [3] (Table 3, ATP 100 μM), 7.84; in assay [6] (setting [8]) it was 8.38; in assay [6] (Table 3, ATP 100 μM, read-out: Biochemical IC50 BRAF_V600E), 8.36. The “IC50 against mutated BRAF kinases including BRAFV600E (in words)” value in assay [6] is recorded as “single digit”.
As to `CCN(C)S(=O)(=O)Nc1ccc(F)c(C(=O)c2c[nH]c3ncc(-c4cnc(C5CC5)nc4)cc23)c1F` [Formula II, 5-(2-cyclopropylpyrimidin-5-yl)-3-[3-[[ethyl(methyl)sulfamoyl]amino]-2,6-difluoro-benzoyl]-1H-pyrrolo[2,3-b]pyridine], in assay [1], the “Stimulation of in vitro and in vivo growth and induction of MAPK pathway response genes including EGFR ligands (in words)” value was “no such effect”. The values for the pIC50 in assay [3] (setting [7]) and in assay [6] (setting [8]) were 7.85 and 8.42, respectively. In addition, the “IC50 against mutated BRAF kinases including BRAFV600E (in words)” value in assay [6] is “single digit”.
`CCCS(=O)(=O)Nc1ccc(F)c(C(=O)c2c[nH]c3ncc(-c4ccc(Cl)cc4)cc23)c1F` [Vemurafenib, vemurafenib, reference compound]: the figures for the pEC50 in assay [2], in assay [4] and in assay [5] were 6.23, 6.11 and 6.00, respectively.
